In the NIST ThermoML archive (doi:10.1021/je500917k):

Assay: xn = mol fraction of the nth substance listed
Settings: 100 kPa, Liquid; for speed of sound: Frequency=2 MHz

CCNCCO [2-(ethylamino)ethanol] + CCN1CCCC1=O
Settings	mass density [kg/m3]	speed of sound [m/s]	viscosity [mPa·s]
293.15 K, x2 = 0	917.79	1442.4	15.28
293.15 K, x2 = 0.111	925.54	1444.5	10.35
293.15 K, x2 = 0.2179	933.77	1448.8	7.447
293.15 K, x2 = 0.3242	941.8	1453.7	5.665
293.15 K, x2 = 0.4274	949.86	1459.7	4.571
293.15 K, x2 = 0.5359	958.36	1468	3.849
293.15 K, x2 = 0.6269	965.64	1473.3	3.126
293.15 K, x2 = 0.7225	973.71	1482	2.717
293.15 K, x2 = 0.8177	981.7	1491.1	2.458
293.15 K, x2 = 0.9095	989.6	1501	2.261
303.15 K, x2 = 0	909.82	1408.3	9.59
303.15 K, x2 = 0.111	917.42	1409.8	6.874
303.15 K, x2 = 0.2179	925.53	1413.7	5.212
303.15 K, x2 = 0.3242	933.46	1418.1	4.093
303.15 K, x2 = 0.4274	941.44	1423.5	3.257
303.15 K, x2 = 0.5359	949.89	1431.6	2.917
303.15 K, x2 = 0.6269	957.14	1436.5	2.458
303.15 K, x2 = 0.7225	965.19	1445	2.205
303.15 K, x2 = 0.8177	973.17	1453.7	2.013
303.15 K, x2 = 0.9095	981.06	1463.3	1.891
313.15 K, x2 = 0	901.79	1374.5	6.406
313.15 K, x2 = 0.111	909.24	1375.4	4.824
313.15 K, x2 = 0.2179	917.23	1378.8	3.79
313.15 K, x2 = 0.3242	925.07	1382.8	3.092
313.15 K, x2 = 0.4274	932.99	1387.9	2.609
313.15 K, x2 = 0.5359	941.38	1395.5	2.311
313.15 K, x2 = 0.6269	948.61	1400	1.979
313.15 K, x2 = 0.7225	956.65	1408.2	1.834
313.15 K, x2 = 0.8177	964.63	1416.7	1.684
313.15 K, x2 = 0.9095	972.5	1425.7	1.578
323.15 K, x2 = 0	893.68	1340.9	4.527
323.15 K, x2 = 0.111	900.98	1341.1	3.563
323.15 K, x2 = 0.2179	908.86	1344.1	2.873
323.15 K, x2 = 0.3242	916.63	1347.7	2.399
323.15 K, x2 = 0.4274	924.49	1352.5	2.053
323.15 K, x2 = 0.5359	932.84	1359.8	1.833
323.15 K, x2 = 0.6269	940.06	1364.2	1.664
323.15 K, x2 = 0.7225	948.09	1372	1.547
323.15 K, x2 = 0.8177	956.06	1380	1.435
323.15 K, x2 = 0.9095	963.93	1388.8	1.367

CCN1CCCC1=O [1-ethyl-2-pyrrolidinone] + CNCCO
Settings	mass density [kg/m3]	speed of sound [m/s]	viscosity [mPa·s]
293.15 K, x1 = 0.0905	947.11	1479.8	9.188
293.15 K, x1 = 0.1825	953.11	1478.5	6.79
293.15 K, x1 = 0.2767	958.92	1478.5	5.162
293.15 K, x1 = 0.3731	964.75	1480.1	4.095
293.15 K, x1 = 0.4713	970.4	1483.1	3.496
293.15 K, x1 = 0.5725	975.84	1486.9	2.951
293.15 K, x1 = 0.6756	981.28	1491.4	2.648
293.15 K, x1 = 0.7808	986.73	1497.9	2.358
293.15 K, x1 = 0.8888	992.12	1504.7	2.231
293.15 K, x1 = 1	997.71	1512.1	2.117
303.15 K, x1 = 0.0905	939.11	1447.2	6.239
303.15 K, x1 = 0.1825	944.94	1445.2	4.715
303.15 K, x1 = 0.2767	950.62	1444.1	3.747
303.15 K, x1 = 0.3731	956.31	1444.9	3.068
303.15 K, x1 = 0.4713	961.92	1447.3	2.666
303.15 K, x1 = 0.5725	967.33	1450.6	2.339
303.15 K, x1 = 0.6756	972.75	1454.6	2.125
303.15 K, x1 = 0.7808	978.18	1460.6	1.94
303.15 K, x1 = 0.8888	983.56	1467	1.83
303.15 K, x1 = 1	989.14	1474.2	1.771
313.15 K, x1 = 0.0905	931.05	1414.1	4.394
313.15 K, x1 = 0.1825	936.73	1411.3	3.488
313.15 K, x1 = 0.2767	942.28	1409.4	2.89
313.15 K, x1 = 0.3731	947.87	1409.5	2.409
313.15 K, x1 = 0.4713	953.42	1411.6	2.123
313.15 K, x1 = 0.5725	958.78	1414.3	1.914
313.15 K, x1 = 0.6756	964.1	1418	1.776
313.15 K, x1 = 0.7808	969.61	1423.5	1.639
313.15 K, x1 = 0.8888	974.99	1429.4	1.546
313.15 K, x1 = 1	980.56	1436	1.518
323.15 K, x1 = 0.0905	922.92	1381	3.293
323.15 K, x1 = 0.1825	928.44	1377.6	2.683
323.15 K, x1 = 0.2767	933.89	1375.1	2.267
323.15 K, x1 = 0.3731	939.38	1374.6	1.943
323.15 K, x1 = 0.4713	944.88	1376.1	1.747
323.15 K, x1 = 0.5725	950.21	1378.3	1.58
323.15 K, x1 = 0.6756	955.61	1381.7	1.478
323.15 K, x1 = 0.7808	961.03	1386.8	1.41
323.15 K, x1 = 0.8888	966.4	1392.3	1.331
323.15 K, x1 = 1	971.96	1398.5	1.299
